What was measured:
Format in all cases: cell-based
Integrin alpha-4/beta-1 = Integrin alpha-4/beta-1 (Homo sapiens, UniProt P05556+P13612); assay: Binding affinity to integrin alpha-4-beta-1 expressed in jurkat J6 cells
Integrin alpha-V/beta-3 = Integrin alpha-V/beta-3 (Homo sapiens, UniProt P05106+P06756); assay: Binding affinity to integrin alphavbeta3 expressed in jurkat J6 cells
Integrin alpha-5/beta-1 = Integrin alpha-5/beta-1 (Homo sapiens, UniProt P05556+P08648); assay: Binding affinity to integrin alpha-5-beta-1 expressed in jurkat J6 cells
Integrin alpha-4/beta-7 = biological target: T1, Integrin alpha-4/beta-7 (Homo sapiens, UniProt P13612+P26010); assay: Binding affinity to integrin alpha-4-beta-7 expressed in jurkat J6 cells
T1 sequence (P13612 whole entry): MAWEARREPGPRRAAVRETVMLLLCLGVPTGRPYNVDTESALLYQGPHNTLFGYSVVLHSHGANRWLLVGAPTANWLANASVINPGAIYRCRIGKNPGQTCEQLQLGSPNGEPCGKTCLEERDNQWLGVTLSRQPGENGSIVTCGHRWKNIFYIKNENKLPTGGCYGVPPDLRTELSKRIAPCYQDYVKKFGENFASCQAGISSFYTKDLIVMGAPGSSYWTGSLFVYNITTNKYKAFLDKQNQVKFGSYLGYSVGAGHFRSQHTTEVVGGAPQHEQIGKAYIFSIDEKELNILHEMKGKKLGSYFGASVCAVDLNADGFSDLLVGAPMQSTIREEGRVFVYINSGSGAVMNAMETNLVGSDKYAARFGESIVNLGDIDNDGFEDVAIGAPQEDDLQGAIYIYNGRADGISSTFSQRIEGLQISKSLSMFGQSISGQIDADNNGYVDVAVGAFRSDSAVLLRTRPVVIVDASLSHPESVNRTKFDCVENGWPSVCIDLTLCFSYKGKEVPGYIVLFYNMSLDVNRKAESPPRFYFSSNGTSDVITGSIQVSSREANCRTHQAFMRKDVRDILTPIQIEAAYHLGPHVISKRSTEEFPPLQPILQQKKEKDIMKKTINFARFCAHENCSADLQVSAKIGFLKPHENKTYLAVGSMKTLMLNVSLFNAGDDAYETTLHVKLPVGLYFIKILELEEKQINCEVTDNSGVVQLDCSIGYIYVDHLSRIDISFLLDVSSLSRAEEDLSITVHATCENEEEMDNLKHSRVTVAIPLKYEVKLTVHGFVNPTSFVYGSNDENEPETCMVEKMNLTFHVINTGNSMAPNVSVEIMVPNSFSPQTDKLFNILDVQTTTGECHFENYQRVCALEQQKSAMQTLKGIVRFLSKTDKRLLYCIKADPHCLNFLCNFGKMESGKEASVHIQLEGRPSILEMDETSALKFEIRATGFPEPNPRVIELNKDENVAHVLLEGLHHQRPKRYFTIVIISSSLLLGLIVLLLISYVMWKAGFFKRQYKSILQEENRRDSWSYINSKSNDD
T1 sequence (P26010 whole entry): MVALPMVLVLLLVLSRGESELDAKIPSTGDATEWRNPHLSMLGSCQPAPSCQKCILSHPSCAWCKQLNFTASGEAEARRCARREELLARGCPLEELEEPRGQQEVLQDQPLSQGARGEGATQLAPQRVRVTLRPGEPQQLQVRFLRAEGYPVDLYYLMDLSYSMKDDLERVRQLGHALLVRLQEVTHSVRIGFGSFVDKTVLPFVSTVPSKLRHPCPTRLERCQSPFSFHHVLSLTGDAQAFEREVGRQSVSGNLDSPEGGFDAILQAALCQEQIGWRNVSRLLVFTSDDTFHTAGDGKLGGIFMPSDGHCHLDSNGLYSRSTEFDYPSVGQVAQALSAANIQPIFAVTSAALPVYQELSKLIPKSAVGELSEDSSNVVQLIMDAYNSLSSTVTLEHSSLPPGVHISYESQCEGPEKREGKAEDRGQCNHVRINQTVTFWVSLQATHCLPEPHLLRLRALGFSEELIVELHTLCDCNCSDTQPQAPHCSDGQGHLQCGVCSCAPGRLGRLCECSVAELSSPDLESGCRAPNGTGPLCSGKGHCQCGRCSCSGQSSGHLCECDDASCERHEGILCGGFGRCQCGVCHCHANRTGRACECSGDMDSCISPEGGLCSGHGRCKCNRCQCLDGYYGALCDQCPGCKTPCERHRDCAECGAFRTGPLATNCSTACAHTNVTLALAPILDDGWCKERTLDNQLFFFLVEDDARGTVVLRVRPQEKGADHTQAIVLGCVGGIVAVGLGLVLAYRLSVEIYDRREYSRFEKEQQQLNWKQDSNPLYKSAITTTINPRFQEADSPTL

[1] = biological target: Integrin alpha-IIb/beta-3 (Homo sapiens, UniProt P05106+P08514); assay: Binding affinity to integrin […] expressed in jurkat J6 cells
Integrin alpha-V/beta-6 = Integrin alpha-V/beta-6 (Homo sapiens, UniProt P06756+P18564); assay: Binding affinity to integrin alpha-v-beta-6 expressed in jurkat J6 cells
Integrin alpha-V/beta-6, sequence (P06756 31-889 limits assumed): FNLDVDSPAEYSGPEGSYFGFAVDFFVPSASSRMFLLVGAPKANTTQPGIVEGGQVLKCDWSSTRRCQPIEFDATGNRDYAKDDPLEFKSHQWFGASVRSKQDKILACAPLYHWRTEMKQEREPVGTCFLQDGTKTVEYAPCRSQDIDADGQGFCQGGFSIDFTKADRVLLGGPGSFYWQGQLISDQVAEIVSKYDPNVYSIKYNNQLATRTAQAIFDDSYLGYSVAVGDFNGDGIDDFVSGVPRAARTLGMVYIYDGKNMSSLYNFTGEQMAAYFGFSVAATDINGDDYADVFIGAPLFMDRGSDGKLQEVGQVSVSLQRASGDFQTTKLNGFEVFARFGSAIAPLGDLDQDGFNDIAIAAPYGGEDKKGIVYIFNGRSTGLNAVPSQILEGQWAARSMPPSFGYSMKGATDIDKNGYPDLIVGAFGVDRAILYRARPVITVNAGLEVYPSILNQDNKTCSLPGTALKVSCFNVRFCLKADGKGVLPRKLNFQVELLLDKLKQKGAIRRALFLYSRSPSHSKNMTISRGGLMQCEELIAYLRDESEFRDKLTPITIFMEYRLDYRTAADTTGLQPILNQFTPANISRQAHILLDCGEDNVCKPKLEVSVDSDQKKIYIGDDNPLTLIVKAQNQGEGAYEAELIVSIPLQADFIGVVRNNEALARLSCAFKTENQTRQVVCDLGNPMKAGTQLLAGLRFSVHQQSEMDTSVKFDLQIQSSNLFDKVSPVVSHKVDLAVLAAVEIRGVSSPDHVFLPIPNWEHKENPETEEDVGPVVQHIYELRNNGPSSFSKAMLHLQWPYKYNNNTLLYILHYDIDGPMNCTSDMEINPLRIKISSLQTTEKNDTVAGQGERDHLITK
Integrin alpha-V/beta-6, sequence (P06756 891-1048 limits assumed): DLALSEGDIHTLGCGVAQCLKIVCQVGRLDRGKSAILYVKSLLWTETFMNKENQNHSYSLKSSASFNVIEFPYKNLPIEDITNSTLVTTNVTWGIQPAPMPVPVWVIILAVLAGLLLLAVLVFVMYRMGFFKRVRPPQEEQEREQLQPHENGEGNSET
Integrin alpha-V/beta-6, sequence (P18564 22-788 limits assumed): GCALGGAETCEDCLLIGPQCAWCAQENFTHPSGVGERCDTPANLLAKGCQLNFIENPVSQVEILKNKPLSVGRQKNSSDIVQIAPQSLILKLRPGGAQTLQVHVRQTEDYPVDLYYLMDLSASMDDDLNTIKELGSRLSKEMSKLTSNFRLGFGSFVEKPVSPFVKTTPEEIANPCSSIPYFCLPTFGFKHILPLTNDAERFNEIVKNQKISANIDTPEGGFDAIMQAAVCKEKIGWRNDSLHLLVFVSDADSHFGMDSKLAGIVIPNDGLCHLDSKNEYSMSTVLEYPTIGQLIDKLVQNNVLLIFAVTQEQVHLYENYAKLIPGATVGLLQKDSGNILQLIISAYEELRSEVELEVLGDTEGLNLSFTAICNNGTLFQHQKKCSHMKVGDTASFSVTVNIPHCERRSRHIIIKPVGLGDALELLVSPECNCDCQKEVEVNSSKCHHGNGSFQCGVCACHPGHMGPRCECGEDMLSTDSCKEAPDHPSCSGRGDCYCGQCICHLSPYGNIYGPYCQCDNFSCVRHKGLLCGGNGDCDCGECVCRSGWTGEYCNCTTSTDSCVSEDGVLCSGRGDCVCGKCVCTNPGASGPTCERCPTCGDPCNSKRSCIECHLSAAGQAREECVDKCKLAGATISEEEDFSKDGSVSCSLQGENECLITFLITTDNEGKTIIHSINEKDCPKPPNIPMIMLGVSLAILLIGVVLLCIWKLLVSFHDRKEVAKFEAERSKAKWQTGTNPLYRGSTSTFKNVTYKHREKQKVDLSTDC

Integrin alpha-4/beta-1, sequence (P05556 whole entry, one chain of several): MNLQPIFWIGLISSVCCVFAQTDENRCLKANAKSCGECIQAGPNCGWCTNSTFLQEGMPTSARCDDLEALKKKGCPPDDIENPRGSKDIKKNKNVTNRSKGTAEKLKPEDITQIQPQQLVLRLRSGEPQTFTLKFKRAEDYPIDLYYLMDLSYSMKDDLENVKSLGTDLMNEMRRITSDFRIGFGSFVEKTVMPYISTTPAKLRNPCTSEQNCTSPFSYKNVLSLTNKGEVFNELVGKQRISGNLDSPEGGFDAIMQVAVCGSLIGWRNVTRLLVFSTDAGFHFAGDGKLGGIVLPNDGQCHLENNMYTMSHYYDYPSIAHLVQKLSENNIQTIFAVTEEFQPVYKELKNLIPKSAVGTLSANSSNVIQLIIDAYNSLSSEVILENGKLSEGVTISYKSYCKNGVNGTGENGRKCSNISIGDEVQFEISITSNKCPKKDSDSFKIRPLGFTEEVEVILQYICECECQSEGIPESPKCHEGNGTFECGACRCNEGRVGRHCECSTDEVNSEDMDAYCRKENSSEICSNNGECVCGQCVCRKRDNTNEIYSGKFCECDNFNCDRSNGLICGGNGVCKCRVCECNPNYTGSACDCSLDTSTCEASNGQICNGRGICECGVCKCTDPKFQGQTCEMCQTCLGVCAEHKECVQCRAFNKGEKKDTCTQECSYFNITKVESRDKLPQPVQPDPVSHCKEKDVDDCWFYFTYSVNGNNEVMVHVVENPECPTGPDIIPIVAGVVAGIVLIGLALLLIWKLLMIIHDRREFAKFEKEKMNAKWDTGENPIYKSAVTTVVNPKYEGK
Integrin alpha-5/beta-1, sequence (P05556 21-798 limits assumed): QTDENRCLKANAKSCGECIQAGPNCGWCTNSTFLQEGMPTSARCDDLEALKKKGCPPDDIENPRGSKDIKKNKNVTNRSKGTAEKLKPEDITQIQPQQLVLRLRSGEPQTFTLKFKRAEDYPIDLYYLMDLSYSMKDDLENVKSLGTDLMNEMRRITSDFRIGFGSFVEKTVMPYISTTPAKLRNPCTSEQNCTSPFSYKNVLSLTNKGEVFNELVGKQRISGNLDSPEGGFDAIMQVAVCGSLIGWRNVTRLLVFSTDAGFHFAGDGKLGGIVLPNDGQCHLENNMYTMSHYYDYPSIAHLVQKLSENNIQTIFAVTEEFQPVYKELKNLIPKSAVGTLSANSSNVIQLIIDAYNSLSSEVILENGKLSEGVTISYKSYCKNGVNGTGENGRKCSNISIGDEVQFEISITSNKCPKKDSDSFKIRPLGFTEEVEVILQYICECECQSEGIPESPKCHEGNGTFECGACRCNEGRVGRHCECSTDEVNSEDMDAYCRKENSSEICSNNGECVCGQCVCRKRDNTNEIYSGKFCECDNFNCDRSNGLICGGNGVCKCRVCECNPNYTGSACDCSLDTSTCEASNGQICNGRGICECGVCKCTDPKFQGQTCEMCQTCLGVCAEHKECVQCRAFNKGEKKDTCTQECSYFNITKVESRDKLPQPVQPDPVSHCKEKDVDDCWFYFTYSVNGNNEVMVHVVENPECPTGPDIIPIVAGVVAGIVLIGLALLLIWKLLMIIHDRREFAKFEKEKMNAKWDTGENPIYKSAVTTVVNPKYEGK
Integrin alpha-5/beta-1, sequence (P08648 42-894 partner limits assumed): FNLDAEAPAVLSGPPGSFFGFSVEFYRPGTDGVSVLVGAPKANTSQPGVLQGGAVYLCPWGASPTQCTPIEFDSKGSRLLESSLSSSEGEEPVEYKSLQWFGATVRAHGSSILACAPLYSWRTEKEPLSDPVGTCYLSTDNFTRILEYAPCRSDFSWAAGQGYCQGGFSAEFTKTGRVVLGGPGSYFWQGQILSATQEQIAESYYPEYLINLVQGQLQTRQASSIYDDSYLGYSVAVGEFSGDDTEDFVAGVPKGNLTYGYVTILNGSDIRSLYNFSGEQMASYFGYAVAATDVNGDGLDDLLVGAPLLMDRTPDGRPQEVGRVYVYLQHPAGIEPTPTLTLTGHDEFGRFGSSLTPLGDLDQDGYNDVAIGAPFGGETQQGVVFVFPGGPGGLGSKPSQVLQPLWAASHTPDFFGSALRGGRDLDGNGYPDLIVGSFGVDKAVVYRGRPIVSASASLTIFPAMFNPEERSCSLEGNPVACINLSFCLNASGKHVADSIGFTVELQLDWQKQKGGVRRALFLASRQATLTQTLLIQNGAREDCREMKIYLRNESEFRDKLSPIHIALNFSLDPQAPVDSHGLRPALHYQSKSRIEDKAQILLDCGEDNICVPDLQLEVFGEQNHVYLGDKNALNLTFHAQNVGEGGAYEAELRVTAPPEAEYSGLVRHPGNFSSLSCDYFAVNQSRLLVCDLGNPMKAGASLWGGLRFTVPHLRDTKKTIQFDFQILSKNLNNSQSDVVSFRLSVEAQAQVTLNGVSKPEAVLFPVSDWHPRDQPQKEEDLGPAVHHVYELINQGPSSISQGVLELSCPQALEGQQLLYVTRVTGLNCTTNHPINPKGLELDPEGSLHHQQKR
Integrin alpha-5/beta-1, sequence (P08648 895-1049 partner limits assumed): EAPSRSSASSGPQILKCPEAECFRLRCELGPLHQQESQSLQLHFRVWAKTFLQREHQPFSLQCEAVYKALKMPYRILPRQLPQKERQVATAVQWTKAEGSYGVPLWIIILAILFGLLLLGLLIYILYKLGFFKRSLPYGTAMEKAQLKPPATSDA

Row | SMILES | Ki (Integrin alpha-4/beta-1) | also measured
1 | Cc1ccccc1NC(=O)Nc1ccc(-c2cccn(Cc3ccc(C(=O)O)cc3)c2=O)cc1 | 316 nM | –
2 | Cc1ccccc1NC(=O)Nc1ccc(-c2cccn(Cc3ccc(CC(=O)O)cc3)c2=O)cc1 | 251 nM | –
3 | Cc1ccccc1NC(=O)Nc1ccc(-c2cccn(Cc3ccccc3CCC(=O)O)c2=O)cc1 | 398 nM | –
4 | COc1cc(CC(=O)Nc2ccc([C@H](C)CC(=O)O)cc2)ccc1NC(=O)Nc1ccccc1C | 0.794 nM | –
5 | Cc1ccccc1NC(=O)Nc1ccc(-c2cccn(Cc3ccc(CCC(=O)O)cc3)c2=O)cc1 | 2 nM | Ki (Integrin alpha-V/beta-3): > 10000 nM; Ki (Integrin alpha-5/beta-1): > 10000 nM; Ki (Integrin alpha-4/beta-7): > 10000 nM; Ki [1]: > 10000 nM; Ki (Integrin alpha-V/beta-6): > 10000 nM
6 | Cc1ccccc1NC(=O)Nc1ccc(-c2cccn(Cc3cccc(CCC(=O)O)c3)c2=O)cc1 | 3.98 nM | –
7 | Cc1ccccc1NC(=O)Nc1ccc(CC(=O)Nc2ccc([C@H](C)CC(=O)O)cc2)cc1 | 63.1 nM | –
8 | COc1cc(-c2ccn(Cc3ccc(CCC(=O)O)cc3)n2)ccc1NC(=O)Nc1ccccc1C | 25.1 nM | –

Continued, in another order:

Row | Ki (Integrin alpha-4/beta-1) | SMILES | also measured
9 | > 1000 nM | Cc1ccccc1NC(=O)Nc1ccc(-c2cccn(-c3ccc(CCC(=O)O)cc3)c2=O)cc1 | –
10 | > 1000 nM | Cc1ccccc1NC(=O)Nc1ccc(-c2cnn(Cc3ccc(CCC(=O)O)cc3)c2)cc1 | –
11 | 0.501 nM | COc1cc(-c2cccn(Cc3ccc(CCC(=O)O)cc3)c2=O)ccc1NC(=O)Nc1ccccc1C | –
12 | 251 nM | Cc1ccccc1NC(=O)Nc1ccc(-c2ccn(Cc3ccc(CCC(=O)O)cc3)n2)cc1 | –
13 | 501 nM | Cc1ccccc1NC(=O)Nc1ccc(-c2ncn(Cc3ccc(CCC(=O)O)cc3)n2)cc1 | –
14 | > 100000 nM | Cc1ccccc1NC(=O)Nc1ccc(-c2cn(Cc3ccc(CCC(=O)O)cc3)cn2)cc1 | –
15 | > 1000 nM | COc1cc(-c2nnc(Cc3ccc(CCC(=O)O)cc3)o2)ccc1NC(=O)Nc1ccccc1C | –

From ChEMBL document CHEMBL1146965, “Pyridone derivatives as potent and selective VLA-4 integrin antagonists” (Bioorg Med Chem Lett, 2006)
